From patent publication US12318390B2, “Pharmaceutical composition for oral administration comprising aminopyrimidine derivative or its salt” (YUHAN CORPORATION, priority 2018, dated 2025)
In brackets after ≈: the same amount, converted by molar mass.

Columns and labels:
[1] = Comparative pharmacokinetic test in normal rats; assay type: in vivo, rats (SD rat)
Description: (§1) Specifically, in the normal rats and the esomeprazole-treated rats, maximum blood concentrations (Cmax) and areas under the blood concentration curve (AUClast) were compared with each other, respectively, to evaluate the absorption of drugs in animals.

[2] = Pharmacokinetic test for Lazertinib mesylate and free-base in beagle dogs; assay type: in vivo; conditions: beagle dog
Description: The results (the maximum blood concentration and the area under the blood concentration curve) of the comparative pharmacokinetic test obtained therefrom were shown in Table 8 and FIG. 7.

[3] = Comparative pharmacokinetic test in esomeprazole-treated rats; assay type: in vivo, rats (SD rat); conditions: for area under the blood concentration curve reduced compared with the normal rats / maximum blood concentration reduced compared with the normal rats: esomeprazole-treated rats vs normal rats
Description: as §1
The results (the maximum blood concentration and the area under the blood concentration curve) of the comparative pharmacokinetic test obtained therefrom were shown in Table 7 and FIGS. 5 and 6.

[4] = Solubility test; assay type: physicochemical; conditions: thermodynamic from solid, 37° C.
Procedure: In addition, 100 mg of Lazertinib free-base (prepared in the same manner as the method described in WO 2016/060443) was tested under the same conditions.

[5] = Stability test under stressed condition; assay type: physicochemical; conditions: for PXRD pattern: stressed condition 60 ± 2° C., 75 ± 5% RH; for Purity: HPLC
[6] = Stability test under accelerated condition; assay type: physicochemical; conditions: for Purity: HPLC
[7] = esomeprazole-treated rats, oral 30 mg/kg
[8] = stressed condition, Start to 4 weeks
[9] = Normal rat, oral 30 mg/5 mL/kg in 0.5% methyl cellulose
[10] = accelerated condition, 3 months
[11] = accelerated condition, 6 months
[12] = accelerated condition, Start to 6 months
[13] = oral 5 mg/2 mL/kg in 0.5% methyl cellulose
[14] = Esomeprazole-treated rat (5 mg/kg i.v. for 3 days), oral 30 mg/5 mL/kg

C=CC(=O)Nc1cc(Nc2nccc(-n3cc(CN(C)C)c(-c4ccccc4)n3)n2)c(OC)cc1N1CCOCC1 [Lazertinib free-base, N-(5-(4-(4-((dimethylamino)methyl)-3-phenyl-1H-pyrazol-1-yl)pirimidine-2-ylamino)-4-methoxy-2-morpholinophenyl)acrylamide]
AUC(0-t) ([1]; male, SD, blood, 30 mg/kg, Normal rat, oral 30 mg/5 mL/kg in 0.5% methyl cellulose, read-out: Area under the blood concentration curve (AUClast)): 7290 ng·h/mL | Cmax ([1]; male, SD, blood, 30 mg/kg, Normal rat, oral 30 mg/5 mL/kg in 0.5% methyl cellulose, read-out: Maximum blood concentration (Cmax)): 726 ng/mL | area under the blood concentration curve lower than Lazertinib mesylate ([1]; normal rats, oral 30 mg/kg): 10.4% | maximum blood concentration lower than Lazertinib mesylate ([1]; normal rats, oral 30 mg/kg): 11.0% | area under the blood concentration curve lower than Lazertinib mesylate ([2]; oral 5 mg/kg): 50.4% | maximum blood concentration lower than Lazertinib mesylate ([2]; oral 5 mg/kg): 40.1% | AUC(0-t) ([2]; male, blood, 5 mg/kg, oral 5 mg/2 mL/kg in 0.5% methyl cellulose, read-out: Area under the blood concentration curve (AUClast)): 379 ng·h/mL | Cmax ([2]; male, blood, 5 mg/kg, oral 5 mg/2 mL/kg in 0.5% methyl cellulose, read-out: Maximum blood concentration (Cmax)): 80.7 ng/mL | area under the blood concentration curve reduced compared with the normal rats [3]: 63.8% | maximum blood concentration reduced compared with the normal rats [3]: 69.3% | area under the blood concentration curve lower than Lazertinib mesylate [3, 7]: 49.4% | maximum blood concentration lower than Lazertinib mesylate [3, 7]: 47.8% | AUC(0-t) ([3]; male, SD, blood, Esomeprazole-treated rat (i.v. for 3 days), oral 30 mg/5 mL/kg, read-out: Area under the blood concentration curve (AUClast)): 2640 ng·h/mL | Cmax ([3]; male, SD, blood, Esomeprazole-treated rat (i.v. for 3 days), oral 30 mg/5 mL/kg, read-out: Maximum blood concentration (Cmax)): 223 ng/mL | solubility at 12 h ([4]; fassgf or other biorelevant, Artificial gastric juice (FaSSGF)): 1500 µg/mL (≈ 2700 µM) | solubility at 12 h ([4]; organic solvent or mixture, Ethanol): 599 µg/mL (≈ 1080 µM) | solubility at 12 h ([4]; pH 1.2 buffer solution, simulated gastric fluid, pH 1.2 buffer): 4400 µg/mL (≈ 7930 µM) | solubility at 12 h ([4]; pH 2.0 buffer solution, simulated gastric fluid, pH 2.0 buffer): 3700 µg/mL (≈ 6670 µM) | solubility at 12 h ([4]; pH 3.0 buffer solution, aqueous buffer, pH 3.0 buffer): 1900 µg/mL (≈ 3430 µM) | solubility at 12 h ([4]; pH 4.0 buffer solution, aqueous buffer, pH 4.0 buffer): 1000 µg/mL (≈ 1800 µM) | solubility at 12 h ([4]; pH 5.0 buffer solution, aqueous buffer, pH 5.0 buffer): 10 µg/mL (≈ 18 µM) | solubility at 12 h ([4]; pH 6.0 buffer solution, aqueous buffer, pH 6.0 buffer): 3 µg/mL (≈ 5.41 µM) | solubility at 12 h ([4]; pH 7.0 buffer solution, aqueous buffer, pH 7.0 buffer): 1 µg/mL (≈ 1.8 µM) | solubility at 12 h ([4]; Artificial intestinal fluid (FaSSIF)): 27 µg/mL (≈ 48.7 µM) | solubility at 12 h ([4]; water): 1 µg/mL (≈ 1.8 µM)

mesylic acid salt of N-(5-(4-(4-((dimethylamino)methyl)-3-phenyl-1H-pyrazol-1-yl)pirimidine-2-ylamino)-4-methoxy-2-morpholinophenyl)acrylamide [Lazertinib mesylate]
PXRD pattern ([5]; 2 weeks): Same | PXRD pattern ([5]; 4 weeks): Same | Appearance (color) ([5]; stressed condition, 2 weeks): White | Content ([5]; stressed condition, 2 weeks): 97.7% | DSC Onset ([5]; stressed condition, 2 weeks): 214 °C | Water Content ([5]; stressed condition, 2 weeks): 2.71% | Purity ([5]; stressed condition, 2 weeks): 99.3% | Appearance (color) ([5]; stressed condition, 4 weeks): White | Content ([5]; stressed condition, 4 weeks): 98.9% | DSC Onset ([5]; stressed condition, 4 weeks): 214 °C | Water Content ([5]; stressed condition, 4 weeks): 2.70% | Purity ([5]; stressed condition, 4 weeks): 99.3% | Appearance (color) ([5]; stressed condition, Start): White | Content ([5]; stressed condition, Start): 98.8% | DSC Onset ([5]; stressed condition, Start): 214 °C | Water Content ([5]; stressed condition, Start): 2.48% | Content Variation [5, 8]: +0.1% | Purity Variation [5, 8]: +0.1% | Water Content Variation [5, 8]: +0.22% | Purity ([5]; stressed condition, Start): 99.2% | Area under the blood concentration curve (AUClast) [1, 9]: 8139.0 ng·h/mL | Maximum blood concentration (Cmax) [1, 9]: 815.6 ng/mL | PXRD pattern ([6]; accelerated condition 40 ± 2° C., 75 ± 5% RH, 1 month): Same | Appearance (color) ([6]; accelerated condition, 1 month): White | Content ([6]; accelerated condition, 1 month): 98.9% | DSC Onset ([6]; accelerated condition, 1 month): 214 °C | Water Content ([6]; accelerated condition, 1 month): 2.73% | Purity ([6]; accelerated condition, 1 month): 99.3% | Appearance (color) [6, 10]: White | Content [6, 10]: 98.9% | DSC Onset [6, 10]: 214 °C | PXRD pattern [6, 10]: Same | Water Content [6, 10]: 3.19% | Purity [6, 10]: 99.3% | Appearance (color) [6, 11]: White | Content [6, 11]: 99.1% | DSC Onset [6, 11]: 214 °C | PXRD pattern [6, 11]: Same | Water Content [6, 11]: 3.01% | Purity [6, 11]: 99.3% | Appearance (color) ([6]; accelerated condition, Start): White | Content ([6]; accelerated condition, Start): 98.8% | DSC Onset ([6]; accelerated condition, Start): 214 °C | Water Content ([6]; accelerated condition, Start): 2.48% | Content Variation [6, 12]: +0.3% | Purity Variation [6, 12]: +0.1% | Water Content Variation [6, 12]: +0.53% | Purity ([6]; accelerated condition, Start): 99.2% | Area under the blood concentration curve (AUClast) [2, 13]: 811.5 ng·h/mL | Maximum blood concentration (Cmax) [2, 13]: 134.7 ng/mL | Area under the blood concentration curve (AUClast) [3, 14]: 5210.9 ng·h/mL | Maximum blood concentration (Cmax) [3, 14]: 427.5 ng/mL | area under the blood concentration curve reduced compared with the normal rats [3]: 36.0% | maximum blood concentration reduced compared with the normal rats [3]: 47.6%
